Data from patent publication US20120190004A1, “METHODS AND COMPOSITIONS FOR THE CRYOPRESERVATION OF DUCKWEED” (Biolex Therapeutics, Inc., priority 2009, published 2012).

Assays:
Assay in all cases: Cryopreservation success rate after dormancy induction in sugar-supplemented medium
L. yungensis = format: in vivo, Lemna yungensis; details: single sugars 90 mg/ml unless the label says 20 mg/ml, six sugar combo 15 mg/ml each
Sp. polyrrhiza = format: in vivo, Spirodela polyrrhiza; details: single sugars 90 mg/ml unless the label says 20 mg/ml, six sugar combo 15 mg/ml each
BAP01-B2-230 line = format: in vivo, Lemna minor
Experimental: (§1) Lemna minor duckweed plants were cultured on Schenk and Hildebrandt media with 20 mg/ml sucrose at an aerial temperature of between 21° C. and 30° C. and light levels ranging from […] for 1 day up to 1 year. Three frond colonies (each frond colony comprised one or more daughter fronds attached to the mother frond) were aseptically transferred into a 2.0-mL cryovial containing a 900 μL solution of Schenk and Hildebrandt media, supplemented with 15 mg/ml of each D-trehalose dihydrate, sucrose, D-sorbitol, D-raffinose pentahydrate, D-glucose, and D-mannitol for the dormancy-induction step. The frond colonies were incubated in this sugar solution for 21-30 days. Each 24-hour photoperiod was comprised of fluctuations in temperature and light levels. Specifically, the daytime hours consisted of culturing the duckweed frond colony at an aerial temperature of 10° C. with a light level of about 25 μM·M^−2·sec^−1 to about 50 μM·M^−2·sec^−1 for a duration of 3 hours, followed by an aerial temperature of 15° C. at a light level of about 25 μM·M^−2·sec^−1 to about 75 μM·M^−2·sec^−1 for a duration of 6 hours, and an aerial temperature of 10° C. with a light level of about 25 μM^−2·sec^−1 to about 50 μM·M^−2·sec^−1 for a duration of 3 hours. During the nighttime hours of the 24-hour photoperiod, the duckweed frond colonies were cultured at an aerial temperature of 4° C. in the absence of light for a duration of 12 hours.
(§2) The duckweed frond colonies were dehydrated in a laminar flow hood in 900 μL of a cryoprotective solution, comprising 1.92 M DMSO, […], 3.26 M glycerol, and 0.4 M sucrose at pH 5.8. The cryovials were incubated in this solution at 4° C. for 30 minutes to 2 hours in the absence of light. Following the incubation, the cryoprotective solution was removed and replaced with 900 μL of fresh cryoprotective solution.
(§3) The duckweed frond colonies were frozen in a slow rate freezer according to the following freezing protocol. The cryovials containing the duckweed frond colonies were held at 4° C. and the temperature was lowered to −4° C. at 1° C. per minute, to −40° C. at 25° C. per minute, and then raised to −12° C. at 10° C. per minute. The temperature was again lowered to −40° C. at 1° C. per minute, to −90° C. at 10° C. per minute, and then lowered to −150° C. at 10° C. per minute. Once frozen, the vials containing the frond colonies were transferred to the vapor phase of liquid nitrogen for storage.
(§4) After up to 17 months in storage, the frozen duckweed frond colonies were thawed and recovered as follows. The vials containing the frozen duckweed frond colonies were transferred from the liquid nitrogen storage tank to a laminar flow hood and were thawed at room temperature for approximately ten minutes. The cryoprotective solution was removed and replaced with 900 μL of Schenk and Hildebrandt medium, supplemented with 1.2 M sucrose, followed by a ten minute incubation at room temperature. The 1.2 M sucrose was subsequently diluted by a series of five dilutions whereby 450 μL of the 1.2 M sucrose solution was removed and replaced with 450 μL of Schenk and Hildebrandt medium supplemented with 20 mg/ml sucrose. Following the serial dilutions, the frond colonies were transferred to a petri dish with Schenk and Hildebrandt medium, supplemented with 10 mg/ml sucrose and 1% (weight/volume) agar. The duckweed frond colonies were cultured at an aerial temperature of between 21° C. and 30° C. with light levels ranging from about 20 μM·M^−2·sec^−1 to about 100 μM·M^−2·sec^−1 for 7-14 days prior to calculating the success rate of the cryopreservation procedure.
(§5) The cryopreservation success rate was calculated by the total number of visible daughter fronds (or daughter fronds with viable tissue) to survive the freezing process and successfully reproduce new daughter fronds as a percentage of the total number of visible daughter fronds that were frozen. […]

L. minor = format: in vivo, Lemna minor
Experimental: as §1, §2, §3, §4, §5

**Q.** How did the Cryopreservation success rate (L. yungensis; first set of experiments) turn out when OC[C@H]1O[C@@](CO)(O[C@H]2O[C@H](CO)[C@@H](O)[C@H](O)[C@H]2O)[C@@H](O)[C@@H]1O [Sucrose, sucrose] was run?
**A.** 0%

**Q.** And the Cryopreservation success rate (L. yungensis; second set of experiments)?
**A.** 0%

**Q.** And the Cryopreservation success rate (Sp. polyrrhiza; first set of experiments)?
**A.** 0% (0/10)

**Q.** And the Cryopreservation success rate (Sp. polyrrhiza; first set of experiments, listed as 20 mg/ml Sucrose)?
**A.** 0% (0/14)

**Q.** What about the Cryopreservation success rate (Sp. polyrrhiza; second set of experiments) of the same compound?
**A.** 0% (0/12)

**Q.** What about the Cryopreservation success rate (BAP01-B2-230 line; sugars at two concentrations: 90 mg/ml (1X) and 270 mg/ml (3X), listed as Sucrose 1X) of the same compound?
**A.** 100% (16/16)

**Q.** What about the Cryopreservation success rate (BAP01-B2-230 line; sugars at two concentrations: 90 mg/ml (1X) and 270 mg/ml (3X), listed as Sucrose 3X) of the same compound?
**A.** 0% (0/12)

**Q.** What about the Cryopreservation success rate (BAP01-B2-230 line; various concentrations of six sugar combination: total sugar 90 (1X), 216 (2.4X), 342 mg/ml (3.8X), or 20 mg/ml sucrose) of the same compound?
**A.** 60.9% (14/23)

**Q.** And the Cryopreservation success rate (L. minor; dormancy induction 21-Day, fluctuating temperature and light)?
**A.** 93.75% (30/32)

**Q.** What about the Cryopreservation success rate (L. minor; first set of experiments, single sugars 90 mg/ml unless the label says 20 mg/ml, six sugar combo 15 mg/ml each) of the same compound?
**A.** 36.8% (7/19)

**Q.** And the Cryopreservation success rate (L. minor; second set of experiments, single sugars 90 mg/ml unless the label says 20 mg/ml, six sugar combo 15 mg/ml each)?
**A.** 91.7% (11/12)

**Q.** What about the “Cryopreservation success, in words” value (L. minor; summary of Tables 6 and 7) of the same compound?
**A.** lower cryopreservation success rates
